Legend:
[1] = test system: PQS-2302-WT (RNA, G4) GGGGAGGAGG; assay: fluorescence enhancement; details: 150 mM KCl; 10 mM Tris-HCl pH 7.5; 2 µM RNA, 2 µM dye; higher than in LiCl
[2] = test system: PQS-91-WT (RNA, G4) GGGGGGAGGGCCGGG; assay: fluorescence enhancement; details: 150 mM KCl, 10 mM Tris-HCl pH 7.5, 2 µM RNA, 2 µM dye
[3] = test system: PQS-1234-WT (RNA, G4) GGGUUAGCCAGGGCCGAGGGGGGCUGGG; assay: fluorescence enhancement; details: 150 mM KCl; 10 mM Tris-HCl pH 7.5; 2 µM RNA, 2 µM dye; higher than in LiCl
[4] = test system: PQS-1276-WT (RNA, G4) GGGCCUCGGGGAACGGGGGCCGGG; assay: fluorescence enhancement; details: 150 mM KCl; 10 mM Tris-HCl pH 7.5; 2 µM RNA, 2 µM dye; higher than in LiCl
[5] = test system: PQS-1682-WT (RNA, G4) GGAGGUGGAUGG; assay: fluorescence enhancement; details: 150 mM KCl; 10 mM Tris-HCl pH 7.5; 2 µM RNA, 2 µM dye
[6] = test system: TERRA-WT-CY5 (RNA, G4) UUAGGGUUAGGGUUAGGGUUAGGG; assay: microscale thermophoresis (MST); details: 150 mM KCl; 10 mM Tris-HCl pH 7.5 folding buffer; BBM stock 80 µM mixed 1:1
[7] = test system: PQS-675-WT-CY5 (RNA, G4) GGGCGGGCGGCCUGCAGGGACAUGGG; assay: microscale thermophoresis (MST); details: 150 mM KCl; 10 mM Tris-HCl pH 7.5 folding buffer; BBM stock 80 µM mixed 1:1
[8] = test system: PQS-2302-WT-CY5 (RNA, G4) GGGGAGGAGG; assay: microscale thermophoresis (MST); details: 150 mM KCl; 10 mM Tris-HCl pH 7.5 folding buffer; BBM stock 80 µM mixed 1:1

Row | SMILES | binding [1] | binding ([2]; only slightly higher than in LiCl) | binding [3] | binding [4] | binding [5] | KD [6] | KD [7] | KD [8] | binding ([2]; higher than in LiCl)
1 | CCc1c(C)c2cc3nc(cc4nc(cc5c(CC)c(C)c(cc1[nH]2)n5C)C(C)=C4CCC(=O)O)C(CCC(=O)O)=C3C | yes | weak | yes | yes | weak | – | – | – | –
2 | COc1cc2c3cc1Oc1c(OC)c(OC)cc4c1[C@@H](Cc1ccc(O)c(c1)Oc1ccc(cc1)C[C@@H]3N(C)CC2)N(C)CC4 | – | – | – | – | – | 11550 nM | 10.78 nM | 264.76 nM | –
3 | Cc1ccc2c(c1)sc(-c1ccc(N(C)C)cc1)[n+]2C | yes | – | yes | yes | weak | – | – | – | yes
